# From PubChem BioAssay AID2202558 (NIEHS Division of Translational Toxicology (DTT))
# Records with an inconclusive call do not appear. Active and inactive are the calls of the source. How the calls were made is not given here. *1 amine or outer side, *2 acyl side, *3 side chain or, on linkers, in order; H or OH if unused. Where a SMILES comes first, the peptide text is derived from it. Bridges are numbered along the chain shown (N, C = ends). Roman numbers before positions name the chains, in order. [ ]: non-standard residue; d: D form. Actinocin(9to1) = Cc1c2oc3c(C)ccc(C(=O)[*:1])c3nc-2c(C(=O)[*:2])c(N)c1=O; NMeV = CN[C@H](C(=O)O)C(C)C; Sar = CNCC(=O)O
# System: mouse/rat in vivo micronucleus assay, summary call
# Test: In vivo micronucleus assay summary data
# Source text: The erythrocyte micronucleus test examines the ability of substances to cause chromosome damage in developing red blood cells inside bone marrow. A micronucleus (literally, "little nucleus") is a biomarker of structural chromosome damage (e.g., breaks) and changes in chromosome number (e.g., chromosome loss). If a chromosome is broken or fails to migrate properly with other chromosomes during cell division, the broken piece or lost chromosome will form a small (micro) nucleus of its own in one of the two daughter cells produced. Detection of chromosomal damage is important because it has been linked to birth defects, infertility, and certain diseases, including cancer.
# The micronucleus test is performed in rapidly dividing cell populations, and bone marrow is a site of rapid blood cell division. Both bone marrow and peripheral blood samples can be examined for the presence of micronuclei in red blood cells.
# Animals are treated with a test substance once or daily over a period of time, and the frequency of micronucleated cells is determined 24-48 hours after the final treatment, depending on the source of the cells (bone marrow or blood) that are examined and the treatment regimen.
# The test subjects are rodents (rats or mice) that are exposed to the test substance, usually by oral gavage or injection. Typically, one to three daily treatments of the test substance are administered over a range of doses; the highest dose tested is near the maximum tolerated dose. Groups of negative and positive control animals are included for each test. Bone marrow samples are obtained from all animals 24 hours after the last treatment, and red blood cells are examined for the presence of micronuclei.
# B. Peripheral Blood Tests
# Micronucleus tests are performed on male and female rodents that are exposed to the test substance orally, dermally, or by inhalation in subchronic (e.g., 28 or 90 days) or short term (e.g., 48-72 hours) toxicity studies. 24 to 48 hours after the final exposure, peripheral blood samples are obtained and red blood cells are examined for the presence of micronuclei. Samples may be examined using standard slide scoring procedures or automated flow cytometric approaches. Since 2007, NTP has routinely relied on flow cytometry to evaluate the frequency of micronucleated cells in peripheral blood.
# Peripheral blood micronucleus assays are typically integrated into all NTP toxicity studies, and they also lend themselves to serial monitoring of micronucleus frequencies over time, since blood samples can be obtained without the need to sacrifice the animals.
# Blood or bone marrow samples from treated animals are compared to samples from untreated animals. With the slide-based approach for data acquisition, 1000-2000 cells were scored per animal. Using flow cytometric procedures to evaluate blood samples, 20,000 immature red blood cells and around one million mature red blood cells are examined per animal, resulting in a marked increase in the ability to detect small changes in the frequency of micronucleated red blood cells. The data is analyzed using statistical methods to determine if there is a significant increase in the frequency of cells containing micronuclei. Both dose-related responses and the magnitude of response for each independent dose group are considered during the evaluation of the data. For a positive test, both a significant dose response (trend) and at least one significant dose group are required. If only one of these measures is present, the test is determined to be questionable. The absence of either condition results in a negative test. The final conclusions for micronucleus tests are determined by considering the results of statistical analyses, reproducibility of any observed effects, and the magnitude of the effects. Ultimately, both the biological significance as well as statistical significance is considered when reaching a final conclusion.
# […]
row,Structure (SMILES),outcome
1,CC[C@H](CC[C@@H](C)[C@H]1CC[C@H]2[C@@H]3CC=C4C[C@@H](O)CC[C@]4(C)[C@H]3CC[C@]12C)C(C)C,inactive; negative
2,Oc1ccccc1,active; positive
3,[O]=[Sb][O][Sb]=[O],active; positive
4,NC(=O)NO,active; positive
5,O=S(=O)([O-])[O-].[O]=[V+2],inactive; negative
6,O=[N+]([O-])C(Br)=Cc1ccccc1,active; positive
7,C=CCOC(C)=O,active; weakly positive
8,COC(=O)[C@H](Cc1ccccc1)NC(=O)[C@@H](N)CC(=O)O (H-Asp-Phe-OMe),active; positive
9,Nc1cccc(Cl)c1,inactive; negative
10,CCCC[N+]1(C)CCCC1,active; negative
11,CC(CCl)OP(=O)(OC(C)CCl)OC(C)CCl (stereo not given),active; positive
12,N[C@@H](Cc1ccc(N(CCCl)CCCl)cc1)C(=O)O,active; positive
13,CC(=O)C1(C)CC2=C(CCCC2(C)C)CC1C (stereo not given),active; positive
14,COC(=O)C(c1ccccc1)C1CCCCN1 (stereo not given),inactive; negative
15,Oc1ccc(O)cc1,active; positive
16,CCOS(C)(=O)=O,active; positive
17,CC(C)N=C=NC(C)C,active; positive
18,ClC(Cl)C(Cl)Cl,active; positive
19,Oc1c(Cl)c(Cl)c(Cl)c(Cl)c1Cl,inactive; negative
20,CC(=O)C(C)O (stereo not given),inactive; negative
21,Nc1nc(=S)c2[nH]cnc2[nH]1,active; positive
22,CCC(=O)C(C)=O,inactive; negative
23,CCCCC(CC)COC(=O)c1ccccc1C(=O)OCC(CC)CCCC (stereo not given),active; positive
24,CCCOC(=O)c1cc(O)c(O)c(O)c1,active; positive
25,CCOC(C)(C)C,inactive; negative

row,Structure (SMILES),outcome
1,O[C@@H]([C@H](O)[C@H](O)CBr)[C@H](O)CBr,active; positive
2,CN(C)C(=O)Nc1ccc(Cl)cc1,active; positive
3,NC(=O)c1ncn([C@@H]2O[C@H](CO)[C@@H](O)[C@H]2O)n1,active; positive
4,CN(N=O)C(N)=O,active; positive
5,C=C(C)C#N,inactive; negative
6,c1ccccc1,active; positive
7,CN(C)CCC(c1ccc(Cl)cc1)c1ccccn1 (stereo not given),inactive; negative
8,CC(=O)C(C)=O,inactive; negative
9,CCCCCC=CC=CC=O,active; equivocal
10,CCn1cc[n+](C)c1,inactive; negative
11,"Cc1c2oc3c(C)ccc(C(=O)N[C@@H]4C(=O)N[C@H](C(C)C)C(=O)N5CCC[C@H]5C(=O)N(C)CC(=O)N(C)[C@@H](C(C)C)C(=O)O[C@@H]4C)c3nc-2c(C(=O)N[C@@H]2C(=O)N[C@H](C(C)C)C(=O)N3CCC[C@H]3C(=O)N(C)CC(=O)N(C)[C@@H](C(C)C)C(=O)O[C@@H]2C)c(N)c1=O (I: T[dV]P[Sar][NMeV] / II: T[dV]P[Sar][NMeV]; ester I:1-I:C, II:1-II:C; linker I:N-II:N via Actinocin(9to1))",active; positive
12,Cc1ccc(S(N)(=O)=O)cc1,inactive; negative
13,CCOC(N)=O,active; positive
14,CCCCCCc1ccc(O)cc1O,active; positive
15,CCCCOCCO,inactive; negative
16,Nc1nc(=O)n([C@@H]2CS[C@H](CO)O2)cc1F,active; positive
17,O=C(O)CCCc1ccc(N(CCCl)CCCl)cc1,active; positive
18,C[C@]12CC[C@@H]3c4ccc(O)cc4CC[C@H]3[C@@H]1CC[C@@H]2O,inactive; negative
19,Nc1ccc(Cl)cc1N,active; positive
20,Nc1ccn([C@@H]2O[C@H](CO)[C@@H](O)[C@@H]2O)c(=O)n1,active; positive
21,c1ccc(N=NNc2ccccc2)cc1,active; positive
22,O=CC=CC=Cc1ccc([N+](=O)[O-])cc1,active; positive (nonstandard protocol)
23,OCC1CO1 (stereo not given),active; positive
24,CN(C)c1ccc(C(c2ccccc2)c2ccc(N(C)C)cc2)cc1,active; positive
25,c1cc(OCC2CO2)cc(OCC2CO2)c1 (stereo not given),active; positive

row,Structure (SMILES),outcome
1,CC[n+]1c(-c2ccccc2)c2cc(N)ccc2c2ccc(N)cc21,inactive; negative
2,C=COC(C)=O,active
3,OCc1c[nH]c2ccccc12,inactive; negative
4,CCCCn1cc[n+](C)c1,inactive; negative
5,O=C(O)CS,active; positive
6,COC(=O)c1ccccc1C(=O)OC,inactive; negative
7,Nc1ccc(Cl)cc1,active; positive
8,Nc1ccc(S(=O)(=O)Nc2ccccn2)cc1,active; positive
9,C=CC(=O)NCNC(=O)C=C,active; positive
10,CC(C)C=O,inactive; negative
11,O=P1(N(CCCl)CCCl)NCCCO1 (stereo not given),active; positive
12,Oc1ccc(/C=C/c2cc(O)cc(O)c2)cc1,inactive; negative
13,C=C(C#N)C(=O)OCC,inactive; negative
14,Cn1c(=O)c2[nH]cnc2n(C)c1=O,active; positive
15,C=CC(=O)OCC(CO)(COC(=O)C=C)COC(=O)C=C,active; positive
16,C=CCOCC1CO1 (stereo not given),active; positive
17,Oc1cccc(O)c1,active; positive
18,O=C(O)C=Cc1ccc(O)c(O)c1,active; positive
19,C1CCC2CCCCC2C1 (stereo not given),active; weakly positive
20,C=CC=C,active; positive (nonstandard protocol)
21,CC[C@]1(O)C[C@H]2CN(CCc3c([nH]c4ccccc34)[C@@](C(=O)OC)(c3cc4c(cc3OC)N(C=O)[C@H]3[C@@](O)(C(=O)OC)[C@H](OC(C)=O)[C@]5(CC)C=CCN6CC[C@]43[C@@H]65)C2)C1,active; positive
22,O=S1(=O)CCCC1,inactive; negative
23,O=S(=O)(O)C(F)(F)C(F)(F)C(F)(F)C(F)(F)C(F)(F)C(F)(F)C(F)(F)C(F)(F)F,active
24,Nc1ncnc2c1ncn2[C@H]1CC[C@@H](CO)O1,active; positive
25,O=C(O)C(F)(F)C(F)(F)C(F)(F)C(F)(F)C(F)(F)C(F)(F)C(F)(F)F,active

row,Structure (SMILES),outcome
1,Nc1ccc(-c2ccccc2)cc1,active; positive
2,CBr,active; positive
3,ClC=CCCl,active; positive
4,CC(C)c1ccccc1,active; negative
5,O=C(O)C(Br)Br,active; positive
6,C=CC(=C)C,active; positive
7,Nc1ccccc1Cl,active; negative
8,Cc1c2ccccc2c(C)c2c1ccc1ccccc12,active; positive
9,O=C1OC(c2ccc(O)cc2)(c2ccc(O)cc2)c2ccccc21,active; positive
10,Cc1cc(O)c2c(c1)C(=O)c1cc(O)cc(O)c1C2=O,active; positive
11,[O]=[Cr](=[O])([OH])[O][Cr](=[O])(=[O])[OH],active; positive
12,Cc1cccc(Nc2cc(Cl)nc(SCC(=O)O)n2)c1C,inactive; negative
13,Nc1ccn([C@H]2CC[C@@H](CO)O2)c(=O)n1,active; positive
14,COc1cc(Cc2cnc(N)nc2N)cc(OC)c1OC (tested in a mixture with another compound),active; positive
15,C=CC(N)=O,active; positive
16,C=CCO,inactive; negative
17,C[C@H](Cn1cnc2c(N)ncnc21)OCP(=O)(O)O,active; positive
18,[O-][N+](=Nc1ccc(Cl)c(Cl)c1)c1ccc(Cl)c(Cl)c1,active; positive
19,Cc1c(N)cccc1N,active; positive
20,C=CC(=O)NCCNC(=O)C=C,active; positive (nonstandard protocol)
21,Nc1ccc(Cc2ccc(N)cc2)cc1,active; positive (nonstandard protocol)
22,O=C1C=CCCC1,inactive; negative
23,S=c1[nH]c2ccccc2s1,inactive; negative
24,Clc1ccc(N=Nc2ccc(Cl)c(Cl)c2)cc1Cl,active; positive
25,ClCCOCOCCCl,inactive; negative
